# Results reported in the supplement of paper PMC4314810.
# ± gives the standard deviation of the averaged measurements.
# System: MCF7
# Experiment: HRG-induced Akt activation (dPAkt = log2 pAkt/Akt HRG-stimulated minus log2 pAkt/Akt basal) (log2 ratio difference); higher = stronger HRG-induced Akt(T308) phosphorylation
# Details: miRNA mimic concentration 10 nM; time after transfection 72 h; heregulin 10 ng/ml; stimulation time 1 h
# Outline: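 MCF7 cells ([…], 96-well plates) were transfected with a library of 879 miRNA mimics at 10 nM final using Lipofectamine RNAiMax, in two biological replicates. After 72 h, cells were stimulated with 10 ng/ml heregulin-beta1 for 1 h or left unstimulated. They were fixed with 4% PFA, and phospho-Akt(T308) and total Akt were read by In-Cell Western on an Odyssey. Signals were corrected for column-wise fixation decay, and HRG-induced Akt activation is log2(pAkt/Akt) stimulated minus unstimulated, averaged over replicates.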
row,Sequence,HRG-induced Akt activation (log2)
1,CAAAGUUUAAGAUCCUUGAAGU,1.08 ± 0.53
2,CAAAUUCGUAUCUAGGGGAAUA,1.57 ± 0.036
3,CAACAAAUCACAGUCUGCCAUA,1.2 ± 0.27
4,CAACAAAUCCCAGUCUACCUAA,1.51 ± 0.076
5,CAACACCAGUCGAUGGGCUGU,1.34 ± 0.34
6,CAACCUGGAGGACUCCAUGCUG,0.949 ± 0.19
7,CAACGGAAUCCCAAAAGCAGCUG,1.51 ± 0.045
8,CAACUAGACUGUGAGCUUCUAG,2.04 ± 0.049
9,CAAGAACCUCAGUUGCUUUUGU,1.15 ± 0.34
10,CAAGCUCGCUUCUAUGGGUCUG,1.18 ± 0.12
11,CAAGCUCGUGUCUGUGGGUCCG,0.995 ± 0.35
12,CAAGCUUGUAUCUAUAGGUAUG,1.59 ± 0.17
13,CAAGUCACUAGUGGUUCCGUU,1.49 ± 0.5
14,CAAGUCUUAUUUGAGCACCUGUU,1.94 ± 0.12
15,CAAUCACUAACUCCACUGCCAU,1.69 ± 0.37
16,CAAUCAGCAAGUAUACUGCCCU,1.93 ± 0.24
17,CAAUGUUUCCACAGUGCAUCAC,1.1 ± 0.42
18,CAAUUUAGUGUGUGUGAUAUUU,2 ± 0.13
19,CACAAGGUAUUGGUAUUACCU,1.79 ± 0.25
20,CACACACUGCAAUUACUUUUGC,1.53 ± 0.053
21,CACAUUACACGGUCGACCUCU,1.173 ± 0.0052
22,CACCAGGCAUUGUGGUCUCC,2.13 ± 0.28
23,CACCCGGCUGUGUGCACAUGUGC,1.53 ± 0.48
24,CACCCGUAGAACCGACCUUGCG,1.4 ± 0.22

row,Sequence,HRG-induced Akt activation (log2)
1,CACGCUCAUGCACACACCCACA,1.68 ± 0.14
2,CACUAGAUUGUGAGCUCCUGGA,1.69 ± 0.57
3,CACUCAGCCUUGAGGGCACUUUC,0.664 ± 0.32
4,CACUGGCUCCUUUCUGGGUAGA,2.02 ± 0.43
5,CACUGUAGGUGAUGGUGAGAGUGGGCA,1.51 ± 0.23
6,CACUGUGUCCUUUCUGCGUAG,1.86 ± 0.19
7,CAGCAGCAAUUCAUGUUUUGAA,1.53 ± 0.33
8,CAGCAGCACACUGUGGUUUGU,1.54 ± 0.46
9,CAGCCACAACUACCCUGCCACU,1.94 ± 0.99
10,CAGGAUGUGGUCAAGUGUUGUU,1.41 ± 0.093
11,CAGGCCAUAUUGUGCUGCCUCA,1.88 ± 0.66
12,CAGGGAGGUGAAUGUGAU,1.71 ± 0.099
13,CAGGUCGUCUUGCAGGGCUUCU,1.44 ± 0.68
14,CAGUAACAAAGAUUCAUCCUUGU,2.1 ± 0.17
15,CAGUGCAAUAGUAUUGUCAAAGC,1.02 ± 0.51
16,CAGUGCAAUGAUAUUGUCAAAGC,1.07 ± 0.53
17,CAGUGCAAUGAUGAAAGGGCAU,1.31 ± 0.024
18,CAGUGCAAUGUUAAAAGGGCAU,0.895 ± 0.16
19,CAGUGCCUCGGCAGUGCAGCCC,1.45 ± 0.064
20,CAGUGGUUUUACCCUAUGGUAG,1.91 ± 0.035
21,CAGUUAUCACAGUGCUGAUGCU,1.66 ± 0.42
22,CAUAAAGUAGAAAGCACUACU,1.54 ± 0.062
23,CAUCAUCGUCUCAAAUGAGUCU,1.91 ± 0.32
24,CAUCCCUUGCAUGGUGGAGGG,1.97 ± 0.25

row,Sequence,HRG-induced Akt activation (log2)
1,CAUCUUACCGGACAGUGCUGGA,1.841 ± 0.015
2,CAUCUUACUGGGCAGCAUUGGA,2.05 ± 0.12
3,CAUCUUCCAGUACAGUGUUGGA,1.73 ± 0.073
4,CAUGCCUUGAGUGUAGGACCGU,1.16 ± 0.11
5,CAUGGUUCUGUCAAGCACCGCG,1.34 ± 0.18
6,CAUUAUUACUUUUGGUACGCG,1.58 ± 0.02
7,CAUUGCACUUGUCUCGGUCUGA,1.74 ± 0.8
8,CCAAAACUGCAGUUACUUUUGC,1.39 ± 0.13
9,CCAAUAUUACUGUGCUGCUUUA,1.45 ± 0.28
10,CCAAUAUUGGCUGUGCUGCUCC,1.32 ± 0.36
11,CCACACCGUAUCUGACACUUU,1.36 ± 0.12
12,CCACCACCGUGUCUGACACUU,1.84 ± 0.088
13,CCAGACAGAAUUCUAUGCACUUUC,1.93 ± 0.7
14,CCAGUAUUAACUGUGCUGCUGA,1.55 ± 0.32
15,CCAGUCCUGUGCCUGCCGCCU,1.88 ± 0.41
16,CCAGUGGGGCUGCUGUUAUCUG,1.78 ± 0.29
17,CCAGUUACCGCUUCCGCUACCGC,1.323 ± 0.011
18,CCAUGGAUCUCCAGGUGGGU,1.47 ± 0.17
19,CCCAGAUAAUGGCACUCUCAA,1.55 ± 0.12
20,CCCAGUGUUCAGACUACCUGUUC,1.28 ± 0.6
21,CCCAGUGUUUAGACUAUCUGUUC,1.58 ± 0.18
22,CCCCACCUCCUCUCUCCUCAG,1.28 ± 0.38
23,CCCCAGGGCGACGCGGCGGG,2.057 ± 0.012
24,CCCCCACAACCGCGCUUGACUAGCU,1.4 ± 0.091

row,Sequence,HRG-induced Akt activation (log2)
1,CCCGGAGCCAGGAUGCAGCUC,1.79 ± 0.39
2,CCCUGUGCCCGGCCCACUUCUG,1.19 ± 0.05
3,CCGUCGCCGCCACCCGAGCCG,1.23 ± 0.13
4,CCUAGUAGGUGUCCAGUAAGUGU,1.04 ± 0.63
5,CCUAUUCUUGAUUACUUGUUUC,1.273 ± 0.0028
6,CCUAUUCUUGGUUACUUGCACG,1.29 ± 0.1
7,CCUCAGGGCUGUAGAACAGGGCU,1.49 ± 0.21
8,CCUCCCACACCCAAGGCUUGCA,1.37 ± 0.3
9,CCUCCUGCCCUCCUUGCUGU,2.4 ± 0.096
10,CCUCUAGAUGGAAGCACUGUCU,1.41 ± 0.026
11,CCUCUGAAAUUCAGUUCUUCAG,1.76 ± 0.071
12,CCUCUGGGCCCUUCCUCCAG,0.844 ± 0.012
13,CCUCUUCCCCUUGUCUCUCCAG,1.52 ± 0.031
14,CCUGCAGCGACUUGAUGGCUUCC,0.841 ± 0.6
15,CCUGGAAACACUGAGGUUGUG,1.61 ± 0.12
16,CCUGUUCUCCAUUACUUGGCUC,1.53 ± 0.36
17,CCUGUUGAAGUGUAAUCCCCA,1.21 ± 0.058
18,CGAAAACAGCAAUUACCUUUGC,1.364 ± 0.0018
19,CGAAUCAUUAUUUGCUGCUCUA,1.44 ± 0.25
20,CGCAGGGGCCGGGUGCUCACCG,1.59 ± 0.09
21,CGCAUCCCCUAGGGCAUUGGUGU,2.62 ± 0.28
22,CGCGGGUGCUUACUGACCCUU,3.25 ± 0.033
23,CGGAUGAGCAAAGAAAGUGGUU,1.19 ± 0.07
24,CGGCAACAAGAAACUGCCUGAG,1.46 ± 0.68

row,Sequence,HRG-induced Akt activation (log2)
1,CGGCCCGGGCUGCUGCUGUUCCU,1.09 ± 0.4
2,CGGCGGGGACGGCGAUUGGUC,2.14 ± 0.33
3,CGGCUCUGGGUCUGUGGGGA,1.13 ± 0.17
4,CGGGCGUGGUGGUGGGGG,1.56 ± 0.11
5,CGGGGCAGCUCAGUACAGGAU,0.9798 ± 0.0068
6,CGGGGUUUUGAGGGCGAGAUGA,2.25 ± 0.089
7,CGGGUCGGAGUUAGCUCAAGCGG,1.44 ± 0.098
8,CGGGUGGAUCACGAUGCAAUUU,2.37 ± 0.063
9,CGUCAACACUUGCUGGUUUCCU,2.32 ± 0.12
10,CGUCUUACCCAGCAGUGUUUGG,1.73 ± 0.13
11,CGUGCCACCCUUUUCCCCAG,1.18 ± 0.34
12,CGUGUAUUUGACAAGCUGAGUU,2.29 ± 0.19
13,CGUGUUCACAGCGGACCUUGAU,1.89 ± 0.39
14,CUAAUAGUAUCUACCACAAUAAA,1.84 ± 0.24
15,CUACAAAGGGAAGCACUUUCUC,1.96 ± 0.15
16,CUACAAAGGGAAGCCCUUUC,1.62 ± 0.21
17,CUAGACUGAAGCUCCUUGAGG,1.46 ± 0.25
18,CUAGGUAUGGUCCCAGGGAUCC,1.26 ± 0.24
19,CUAGUGAGGGACAGAACCAGGAUUC,1.82 ± 0.032
20,CUAUACAACCUACUGCCUUCCC,1.27 ± 0.16
21,CUAUACAAUCUACUGUCUUUC,1.11 ± 0.051
22,CUAUACAAUCUAUUGCCUUCCC,1.44 ± 0.43
23,CUAUACAGUCUACUGUCUUUCC,1.85 ± 0.18
24,CUAUACGACCUGCUGCCUUUCU,1.47 ± 0.14

row,Sequence,HRG-induced Akt activation (log2)
1,CUAUACGGCCUCCUAGCUUUCC,1.9 ± 0.13
2,CUCAGUAGCCAGUGUAGAUCCU,1.53 ± 0.16
3,CUCAUCUGCAAAGAAGUAAGUG,1.5 ± 0.58
4,CUCCAGAGGGAAGUACUUUCU,2.02 ± 0.14
5,CUCCAGAGGGAUGCACUUUCU,1.83 ± 0.3
6,CUCCCACAUGCAGGGUUUGCA,1.81 ± 0.022
7,CUCCCACUGCUUCACUUGACUA,1.32 ± 0.27
8,CUCCGUUUGCCUGUUUCGCUG,2.07 ± 0.2
9,CUCCUACAUAUUAGCAUUAACA,1.12 ± 0.31
10,CUCCUAUAUGAUGCCUUUCUUC,1.72 ± 0.36
11,CUCCUGACUCCAGGUCCUGUGU,1.43 ± 0.33
12,CUCCUGAGCCAUUCUGAGCCUC,1.48 ± 0.25
13,CUCGGCGCGGGGCGCGGGCUCC,1.37 ± 0.015
14,CUCUAGAGGGAAGCACUUUCUC,1.85 ± 0.4
15,CUCUAGAGGGAAGCACUUUCUG,2.15 ± 0.078
16,CUCUAGAGGGAAGCGCUUUCUG,1.51 ± 0.15
17,CUCUCACCACUGCCCUCCCACAG,1.9 ± 0.13
18,CUCUUGAGGGAAGCACUUUCUGU,2.16 ± 0.45
19,CUGAAGCUCAGAGGGCUCUGAU,1.38 ± 0.13
